# Laboratory results as given in patent publication US10293053B2, “Silanol based therapeutic payloads” (BlinkBio, Inc., priority 2016, dated 2019).
# Read-outs that look alike come from different tables or passages of the source. Where a SMILES comes first, the peptide text is derived from it. [ ]: non-standard residue; d: D form. The star is where a group is joined. Dolaproine = CO[C@@H]([C@@H]1CCCN1)[C@@H](C)C(=O)O; Dil = CC[C@H](C)[C@H](NC)[C@@H](CC(=O)O)OC; NMe2Val = CC(C)[C@@H](C(=O)*)N(C)C; NMeV = CN[C@H](C(=O)O)C(C)C; X3 = C[Si](C)(O)CCCC(=O)*; X2 = C[Si](C)(O)CCCN*
# Experiments:
# [1] = test system: KB cells; test: CellTiter-Glo cell viability, 72 hour incubation protocol; assay type: cell-based; conditions: Homo sapiens
# Description: 72 hour incubation protocol: The CellTiter-Glo (CTG) assay (Promega) was used to measure cell viability in various different cell lines included KB cells obtained from American Type Culture Collection (ATCC). […] For this assay, 5,000 cells per well were plated in a 96-well tissue culture treated plate in RPMI 1640 medium (ThermoFisher Scientific) containing 5% FBS. Cells were allowed to settle at 37° C. in a humidified CO2 incubator for 24 hours. Cells were dosed with compound or vehicle control in duplicate for 72 hours at 37° C. in a humidified CO2 incubator. After the 72 hour dosing period, the CTG assay was performed according to the manufacturer's specifications. Luminescence was read using a Victor X5 (PerkinElmer) plate reader. Data was analyzed using Prism software and was normalized to the vehicle control.
# [2] = test system: KB cells; test: Cell titer-glo cell viability, washout protocol; assay type: cell-based; conditions: percent cell kill at 48 h
# Description: Washout protocol: KB cells in culture were seeded in white clear bottom 96-well tissue culture plate at a density of 5,000 cells per well in a folate free RPMI media with 10% FBS a day prior to compound addition. Cells were counted visually with a hemocytometer and diluted accordingly to obtain the desired density. Cells were allowed to incubate for 24 hours in a humidified CO2 atmosphere in an incubator at 37° C. The spent media was aspirated and replenished with 100 μL of fresh media containing a 3-fold serial dilution of compound with concentrations ranging from 0.3 to 2000 nM and with a final DMSO concentration of 0.1%. Blank wells without compound were also treated with media containing 0.1% DMSO. Cells were incubated for 2 h and washed 4 times with fresh media. […] […] 100 μL of constituted Cell titer-glo reagent was added to each well and luminescence was recorded with a VICTOR plate reader according to manufacturers' protocol.
# [3] = 72 h incubation protocol, silanol based payloads, read-out: EC50
SMILES,EC50 ([1]; 72 h),% Kill (48 h) [2],other results
"CC[C@@]1(O)C(=O)OCc2c1cc1n(c2=O)Cc2c-1nc1ccccc1c2CC[Si](C)(C)O [Example 7, (S)-4-Ethyl-4-hydroxy-11-(2-(hydroxydimethylsilyl)ethyl)-1,12-dihydro-14H-pyrano[3′,4′:6,7]indolizino[1,2-b]quinoline-3,14(4H)-dione]",,,"EC50 [1, 3]: ~56 nM"
"CC[C@H](C)[C@@H]([C@@H](CC(=O)N1CCC[C@H]1[C@H](OC)[C@@H](C)C(=O)N[C@@H](Cc1ccccc1)C(=O)NCCC[Si](C)(C)O)OC)N(C)C(=O)[C@@H](NC(=O)[C@H](C(C)C)N(C)C)C(C)C [Example 5, (S)—N-((3R,4S,5S)-1-((S)-2-((3R,4R,7S)-7-benzyl-13-hydroxy-4,13-dimethyl-5,8-dioxo-2-oxa-6,9-diaza-13-silatetradecan-3-yl)pyrrolidin-1-yl)-3-methoxy-5-methyl-1-oxoheptan-4-yl)-2-((S)-2-(dimethylamino)-3-methylbutanamido)-N,3-dimethylbutanamide] (NMe2Val-V[Dil][Dolaproine]F-X2)",~0.5 nM,,
CC[C@]1(O)C[C@@H]2CN(CCc3c([nH]c4ccccc34)[C@@](C(=O)OC)(c3cc4c(cc3OC)N(C)[C@H]3[C@@](O)(C(=O)NCCC[Si](C)(C)O[Si](C)(C)CSc5ncc(Cn6cc(C[C@H](NC(=O)[C@H](CC(=O)O)NC(=O)[C@H](CC(=O)O)NC(=O)[C@H](CCCNC(=N)N)NC(=O)[C@H](CC(=O)O)NC(=O)CC[C@H](NC(=O)c7ccc(NCc8cnc9nc(N)[nH]c(=O)c9n8)cc7)C(=O)O)C(=O)O)nn6)cn5)[C@H](O)[C@]5(CC)C=CCN6CC[C@]43[C@@H]65)C2)C1 [Example 28],,86%,
CC[C@]1(O)CC2CN(CCc3c([nH]c4ccccc34)[C@@](C(=O)OC)(c3cc4c(cc3OC)N(C)[C@H]3[C@@](O)(C(=O)NCCC[Si](C)(C)O[Si](C)(C)CSc5ncc(COCCOCCOCCn6cc(COCC(COCc7cn(CCOCCOCCOCc8cnc(SC[Si](C)(C)O[Si](C)(C)CCCNC(=O)[C@@]9(O)[C@H](O)[C@]%10(CC)C=CCN%11CC[C@@]%12(c%13cc([C@@]%14(C(=O)OC)CC%15CN(CCc%16c%14[nH]c%14ccccc%16%14)C[C@](O)(CC)C%15)c(OC)cc%13N(C)[C@@H]9%12)[C@@H]%11%10)nc8)nn7)(COCc7cn(CCOCCOCCOCc8cnc(SC[Si](C)(C)O[Si](C)(C)CCCNC(=O)[C@@]9(O)[C@H](O)[C@]%10(CC)C=CCN%11CC[C@@]%12(c%13cc([C@@]%14(C(=O)OC)CC%15CN(CCc%16c%14[nH]c%14ccccc%16%14)C[C@](O)(CC)C%15)c(OC)cc%13N(C)[C@@H]9%12)[C@@H]%11%10)nc8)nn7)NC(=O)CCOCCOCCOCCOCCOCCOCCNC(=O)CC[C@H](NC(=O)c7ccc(NCc8cnc9nc(N)[nH]c(=O)c9n8)cc7)C(=O)O)nn6)cn5)[C@H](O)[C@]5(CC)C=CCN6CC[C@]43[C@@H]65)C2)C1 (some centres unmarked) [Example 27],,80%,
"CC[C@H](C)[C@@H]([C@@H](CC(=O)N1CCC[C@H]1[C@H](OC)[C@@H](C)C(=O)N[C@@H](Cc1ccccc1)C(=O)O)OC)N(C)C(=O)[C@@H](NC(=O)[C@H](C(C)C)N(C)C(=O)CCC[Si](C)(C)O)C(C)C [Example 6, ((2R,3R)-3-((S)-1-((3R,4S,5S)-4-((S)-2-((S)-2-(4-(hydroxydimethylsilyl)-N-methylbutanamido)-3-methylbutanamido)-N,3-dimethylbutanamido)-3-methoxy-5-methylheptanoyl)pyrrolidin-2-yl)-3-methoxy-2-methylpropanoyl)-L-phenylalanine] (X3-[NMeV]V[Dil][Dolaproine]F-OH)",~500 nM,,
CCCC(=O)OCN(C(=O)[C@@H](NC(=O)[C@H]1CCCCN1C)[C@@H](C)CC)[C@H](C[C@@H](OC(C)=O)c1nc(C(=O)N[C@@H](Cc2ccc(O)cc2)C[C@H](C)C(=O)NCCC[Si](C)(C)O)cs1)C(C)C (stereo in doubt) [Example 13],< 0.1 nM,,
"CC[C@]1(O)C[C@H]2CN(CCc3c([nH]c4ccccc34)[C@@](C(=O)OC)(c3cc4c(cc3OC)N(C)[C@H]3[C@@](O)(C(=O)NCCC[Si](C)(C)O)[C@H](O)[C@]5(CC)C=CCN6CC[C@]43[C@@H]65)C2)C1 (stereo in doubt) [Example 1, Methyl (3R,5S,7R,9S)-5-ethyl-9-((3aR,3a1R,4R,5S,5aR,10bR)-3a-ethyl-4,5-dihydroxy-5-((3-(hydroxydimethylsilyl)propyl)carbamoyl)-8-methoxy-6-methyl-3a,3a1,4,5,5a,6,11,12-octahydro-1H-indolizino[8,1-cd]carbazol-9-yl)-5-hydroxy-1,4,5,6,7,8,9,10-octahydro-2H-3,7-methano[1]azacycloundecino[5,4-b]indole-9-carboxylate]",,,"EC50 [1, 3]: ~6 nM"
CC[C@]1(O)C[C@@H]2CN(CCc3c([nH]c4ccccc34)[C@@](C(=O)OC)(c3cc4c(cc3OC)N(C)[C@H]3[C@@](O)(C(=O)NCCC[Si](C)(C)O[Si](C)(C)CSc5ncc(Cn6cc(COCCOCCOCCOCCOCCOCCNC(=O)CC[C@H](NC(=O)c7ccc(NCc8cnc9nc(N)[nH]c(=O)c9n8)cc7)C(=O)O)nn6)cn5)[C@H](O)[C@]5(CC)C=CCN6CC[C@]43[C@@H]65)C2)C1 [Example 24],,84%,
